Results published in ChEMBL document CHEMBL1201862, “PubChem BioAssay data set” (2004).
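48-hour exposure; five concentrations; linearly interpolated endpoints. GI50 is the concentration that inhibits growth by half.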 The source made the active and inactive calls. Rule as the data show it: active = GI50 up to about 1.1 µM and inactive = higher.

Columns and labels:
Test in all cases: inhibition of tumour cell growth, NCI panel, 48 h
786-0 = tested on: 786-0
ACHN = tested on: ACHN
CAKI-1 = tested on: CAKI-1
CCRF-CEM = tested on: CCRF-CEM
HCT-15 = tested on: HCT-15
HOP-62 = tested on: HOP-62
HT-29 = tested on: HT-29
K562 = tested on: K562
LOX IMVI = tested on: LOX IMVI
MDA-N = tested on: MDA-N
MOLT-4 = tested on: MOLT-4
Malme-3M = tested on: Malme-3M
NCI/ADR-RES = tested on: NCI/ADR-RES
OVCAR-8 = tested on: OVCAR-8
RXF 393 = tested on: RXF 393
SF-295 = tested on: SF-295
SK-MEL-28 = tested on: SK-MEL-28
SN12C = tested on: SN12C
SK-MEL-2 = tested on: SK-MEL-2
A498 = tested on: A498

| SMILES | GI50 (786-0) | GI50 (ACHN) | GI50 (CAKI-1) | GI50 (CCRF-CEM) | GI50 (HCT-15) | GI50 (HOP-62) | GI50 (HT-29) | GI50 (K562) | GI50 (LOX IMVI) | GI50 (MDA-N) | GI50 (MOLT-4) | GI50 (Malme-3M) | GI50 (NCI/ADR-RES) | GI50 (OVCAR-8) | GI50 (RXF 393) | GI50 (SF-295) | GI50 (SK-MEL-28) | GI50 (SN12C) | GI50 (SK-MEL-2) | GI50 (A498) |
| --- | --- | --- | --- | --- | --- | --- | --- | --- | --- | --- | --- | --- | --- | --- | --- | --- | --- | --- | --- | --- |
| S=C1CSc2c(ccc3ccccc23)N1 | > 100 µM (inactive) | > 100 µM (inactive) | > 100 µM (inactive) | > 100 µM (inactive) | > 100 µM | > 100 µM (inactive) | > 100 µM (inactive) | > 100 µM (inactive) | > 100 µM (inactive) | > 100 µM (inactive) | 9.98 µM (inactive) | > 100 µM (inactive) | > 100 µM (inactive) | > 100 µM (inactive) | 35.9 µM (inactive) | > 100 µM (inactive) | > 100 µM (inactive) | > 100 µM (inactive) |  |  |
| COc1cc(N(Cc2ccc3oc(=O)c(-c4ccccc4)nc3c2)Cc2ccc3oc(=O)c(-c4ccccc4)nc3c2)cc(OC)c1OC | > 10 µM (inactive) | > 10 µM (inactive) | > 10 µM (inactive) | > 10 µM (inactive) | > 10 µM | > 10 µM (inactive) | > 10 µM (inactive) | > 10 µM (inactive) | > 10 µM (inactive) | > 10 µM (inactive) | > 10 µM (inactive) |  | > 10 µM (inactive) | > 10 µM (inactive) | > 10 µM (inactive) | > 10 µM (inactive) | > 10 µM (inactive) | > 10 µM (inactive) | > 10 µM (inactive) |  |
| COC(=O)/C=C(\CC(=O)OC)n1nnnc1[C@@H]1C[C@H](COC(c2ccccc2)(c2ccccc2)c2ccccc2)[C@H]2OC(C)(C)O[C@H]21 | > 100 µM (inactive) | > 100 µM (inactive) | > 100 µM (inactive) | 22.9 µM (inactive) |  | > 100 µM (inactive) | > 100 µM (inactive) | 65.5 µM (inactive) | > 100 µM (inactive) | > 100 µM (inactive) | > 100 µM (inactive) | > 100 µM (inactive) |  | > 100 µM (inactive) | 42.1 µM (inactive) | > 100 µM (inactive) | > 100 µM (inactive) | > 100 µM (inactive) | > 100 µM (inactive) | > 100 µM (inactive) |
| COc1ccc(-n2c(=O)n(C)c(=O)n2-c2ccc(OC)cc2)cc1 | > 100 µM (inactive) | > 100 µM (inactive) | > 100 µM (inactive) | > 100 µM (inactive) | > 100 µM | > 100 µM (inactive) | > 100 µM (inactive) | > 100 µM (inactive) | 59.2 µM (inactive) | > 100 µM (inactive) | > 100 µM (inactive) |  | > 100 µM (inactive) | > 100 µM (inactive) |  | > 100 µM (inactive) | > 100 µM (inactive) | > 100 µM (inactive) | > 100 µM (inactive) | > 100 µM (inactive) |
| O=S1(=O)OCCOS(=O)(=O)C1S(=O)(=O)c1cccc2ccccc12 | 99.5 µM (inactive) | > 100 µM (inactive) | > 100 µM (inactive) | > 100 µM (inactive) | > 100 µM | > 100 µM (inactive) | 52.7 µM (inactive) | 41.4 µM (inactive) | 46.7 µM (inactive) | > 100 µM (inactive) | > 100 µM (inactive) | > 100 µM (inactive) | > 100 µM (inactive) | > 100 µM (inactive) |  | > 100 µM (inactive) | > 100 µM (inactive) | > 100 µM (inactive) | > 100 µM (inactive) |  |
| S=C(NCCc1ccccn1)N/N=C/c1ccccn1 | 0.0653 µM (active) | < 0.01 µM (active) | < 0.01 µM (active) | < 0.01 µM (active) |  | 0.0149 µM (active) |  | < 0.01 µM (active) | < 0.0373 µM (active) | 1.91 µM (inactive) | < 0.0108 µM (active) | 2.62 µM (inactive) | 0.0147 µM (active) | 0.0489 µM (active) |  | 0.964 µM (active) | 1.87 µM (inactive) | 1.11 µM (active) | 0.0457 µM (active) |  |
| COC(=O)CN(CC1O[C@@H]2OC(C)(C)O[C@@H]2C1NC(C)=O)C(=O)OCc1ccccc1 (stereo partly specified) | > 100 µM (inactive) | > 100 µM (inactive) | > 100 µM (inactive) |  | > 100 µM | > 100 µM (inactive) | > 100 µM (inactive) | > 100 µM (inactive) | > 100 µM (inactive) | > 100 µM (inactive) | > 100 µM (inactive) |  | > 100 µM (inactive) | > 100 µM (inactive) |  | > 100 µM (inactive) | > 100 µM (inactive) | > 100 µM (inactive) | > 100 µM (inactive) | > 100 µM (inactive) |
| C(=C\Nc1ccc(-c2ccccc2)cc1)/C=N/c1ccc(-c2ccccc2)cc1 | > 100 µM (inactive) | > 100 µM (inactive) | > 100 µM (inactive) | > 100 µM (inactive) | > 100 µM | > 100 µM (inactive) | > 100 µM (inactive) | > 100 µM (inactive) | > 100 µM (inactive) | > 100 µM (inactive) | > 100 µM (inactive) |  | > 100 µM (inactive) | > 100 µM (inactive) | > 100 µM (inactive) | > 100 µM (inactive) | > 100 µM (inactive) | > 100 µM (inactive) | > 100 µM (inactive) |  |
